Results reported in patent publication US20140120060A1, “TREATMENT OF RHEUMATOID ARTHRITIS AND ASTHMA USING PI3 KINASE INHIBITORS” (INFINITY PHARMACEUTICALS, INC., priority 2012, published 2014).
“Also recorded” adds a separate entry of the source. Like-named read-outs stand apart in the source and are kept apart here.

Assays:
[1] = tested on: ovalbumin-induced lung inflammation; assay: Ovalbumin-induced murine model of asthma
[2] = tested on: respiratory system; assay: Respiratory study in Sprague-Dawley rat; conditions: male rats, single oral dose up to 350 mg/kg
[3] = 13-week repeat-dose safety study in cynomolgus monkeys; conditions: both sexes, cynomolgus monkey, in vivo, oral, Day 91, combined sexes, 5 mg/kg/day, read-out: mean AUC0-24 hr at the NOAEL
Method: (§1) The no observed adverse effect level (NOAEL) in the 13-week rat study was 25 mg/kg/day (150 mg/m^2/day) and the NOAEL in the 13-week monkey study was 5 mg/kg/day (60 mg/m^2/day). On Day 91, the mean AUC0-24 hr values for combined sexes at the NOAELs were 14150 ng*h/mL in the rat, and 4015 ng*h/mL in the monkey.

[4] = tested on: neutrophil migration; assay: Neutrophil migration into rat air pouches stimulated with IL-8; type: in vivo
Description: In one embodiment, provided herein is a method for screening for anti-inflammatory or anti-asthma compound in an animal (e.g., rat) pouch assay. In one embodiment, provided herein is a method for screening for anti-inflammatory or anti-asthma compound comprising (a) creating a pouch at the back of an animal (e.g., rat) and introducing a stimuli into the pouch; (b) administrating a compound to the animal; (c) measuring the influx of leukocyte (e.g., neutrophil and/or eosinophil) into the pouch; and (d) comparing the influx of leukocyte to that of a control vehicle; wherein a reduction in the influx of leukocyte indicates the compound is an anti-inflammatory or anti-asthma compound.
The ability of PI3K-δ,γ inhibitors to block leukocyte (e.g., neutrophil) migration was examined in a rat air pouch model. Air pouches were created by subcutaneous air injections into the back of the rats on Days 0 and 3. […] Animals dosed with vehicle only, with or without IL-8 stimulation, served as study controls.

[5] = tested on: Murine B-cell; assay: Murine B-cell proliferation; type: cell-based; conditions: Mus musculus
[6] = Clinical study in healthy adult subjects: safety
[7] = Clinical study in healthy adult subjects: pharmacokinetics; type: in vivo, human; conditions: for half-life / AUC(0-t) / AUC(0-inf) / Cmax / Vd/F: human, plasma; for Vd/F: read-out: Vz/F
[8] = tested on: Human T-cell; assay: Human T-cell proliferation; type: cell-based
[9] = tested on: TL2/TLR6; assay: PAM2CSK4 induced cytokine production in PBMCs; type: cell-based, human
Method: (§2) These experiments were conducted using PBMCs.
PAM2CSK4 signals through TL2/TLR6, which plays a role in atherosclerosis, colitis, ischemic injury, e.g., cardiac events and stroke.

[10] = tested on: TLR9; assay: CPG-A induced cytokine production in PBMCs; type: cell-based, human
Method: Human PBMCs were stimulated with CPG-A. CPG-A selectively activates PDCs, inducing IFN-α production via TLR9. IFN-α is a PDC cell selective readout. Primary human PBMCs from two normal human donors were used as a source of PDC cells. 200 K cells per well were used. […] Then the cells were treated with the specified concentration of CPG-A for 16 hours. RPMI-5% serum was employed.
as §2

[11] = Embryo/fetal developmental toxicity study in rabbits; conditions: female, rabbit, in vivo; pregnant rabbits, last day of dosing, 75 mg/kg/day; read-out: mean AUC0-24 hr at the NOAEL
[12] = Embryo/fetal developmental toxicity study in rats; conditions: female, rat, in vivo; pregnant rats, last day of dosing, 35 mg/kg/day; read-out: mean AUC0-24 hr at the NOAEL
[13] = tested on: PBMCs; assay: LPS induced cytokine production in PBMCs; type: cell-based, human
Method: as §2

[14] = target: PI3K δ (Homo sapiens, UniProt O00329); assay: In vitro PI3K δ inhibition (lipid kinase assay, TLC or HTRF); conditions: selectivity
[15] = tested on: Human B-cell; assay: Human B-cell proliferation; type: cell-based
[16] = Pharmacokinetics in Sprague-Dawley rats; type: in vivo, rat
[17] = 13-week repeat-dose safety study in rats; conditions: both sexes, in vivo, oral; rat, Day 91, combined sexes, 25 mg/kg/day; read-out: mean AUC0-24 hr at the NOAEL
Method: as §1

[18] = DDI portion, 10 mg with 200 mg q12h ketoconazole
[19] = single oral dose 1 mg, mean (%CV)
[20] = single oral dose 2 mg, mean (%CV)
[21] = single oral dose 5 mg, mean (%CV)
[22] = single oral dose 10 mg, mean (%CV)
[23] = single oral dose 20 mg, mean (%CV)
[24] = single oral dose 30 mg, mean (%CV)

Chain of PI3K δ (O00329 whole entry): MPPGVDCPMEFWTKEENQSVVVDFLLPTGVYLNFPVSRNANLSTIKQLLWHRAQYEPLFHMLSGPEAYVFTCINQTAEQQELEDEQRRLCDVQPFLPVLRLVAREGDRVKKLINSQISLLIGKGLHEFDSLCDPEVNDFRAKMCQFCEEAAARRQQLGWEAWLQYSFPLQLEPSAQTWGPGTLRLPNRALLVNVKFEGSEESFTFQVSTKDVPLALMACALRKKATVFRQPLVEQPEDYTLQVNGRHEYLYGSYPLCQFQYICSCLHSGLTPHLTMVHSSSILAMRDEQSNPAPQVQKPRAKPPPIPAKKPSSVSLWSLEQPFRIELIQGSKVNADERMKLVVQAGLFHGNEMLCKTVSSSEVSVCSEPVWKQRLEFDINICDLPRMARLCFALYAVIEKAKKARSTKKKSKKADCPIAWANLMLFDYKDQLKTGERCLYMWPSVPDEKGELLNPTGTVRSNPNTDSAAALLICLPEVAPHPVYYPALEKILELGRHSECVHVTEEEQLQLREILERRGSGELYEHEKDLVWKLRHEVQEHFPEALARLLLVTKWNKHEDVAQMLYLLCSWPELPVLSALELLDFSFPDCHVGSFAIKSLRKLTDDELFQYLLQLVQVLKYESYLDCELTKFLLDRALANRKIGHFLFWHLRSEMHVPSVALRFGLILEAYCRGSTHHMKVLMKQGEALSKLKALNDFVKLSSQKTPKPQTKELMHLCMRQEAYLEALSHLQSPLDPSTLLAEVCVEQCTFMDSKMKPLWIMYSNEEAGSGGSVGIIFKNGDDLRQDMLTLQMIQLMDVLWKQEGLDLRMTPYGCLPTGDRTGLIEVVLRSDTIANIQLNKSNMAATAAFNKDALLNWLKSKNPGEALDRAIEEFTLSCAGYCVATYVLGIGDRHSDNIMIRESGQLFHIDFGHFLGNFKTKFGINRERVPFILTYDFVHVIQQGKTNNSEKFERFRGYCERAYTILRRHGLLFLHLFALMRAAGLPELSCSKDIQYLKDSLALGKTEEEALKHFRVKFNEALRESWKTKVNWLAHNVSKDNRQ
Chain of PI3K δ (P27986 whole entry partner): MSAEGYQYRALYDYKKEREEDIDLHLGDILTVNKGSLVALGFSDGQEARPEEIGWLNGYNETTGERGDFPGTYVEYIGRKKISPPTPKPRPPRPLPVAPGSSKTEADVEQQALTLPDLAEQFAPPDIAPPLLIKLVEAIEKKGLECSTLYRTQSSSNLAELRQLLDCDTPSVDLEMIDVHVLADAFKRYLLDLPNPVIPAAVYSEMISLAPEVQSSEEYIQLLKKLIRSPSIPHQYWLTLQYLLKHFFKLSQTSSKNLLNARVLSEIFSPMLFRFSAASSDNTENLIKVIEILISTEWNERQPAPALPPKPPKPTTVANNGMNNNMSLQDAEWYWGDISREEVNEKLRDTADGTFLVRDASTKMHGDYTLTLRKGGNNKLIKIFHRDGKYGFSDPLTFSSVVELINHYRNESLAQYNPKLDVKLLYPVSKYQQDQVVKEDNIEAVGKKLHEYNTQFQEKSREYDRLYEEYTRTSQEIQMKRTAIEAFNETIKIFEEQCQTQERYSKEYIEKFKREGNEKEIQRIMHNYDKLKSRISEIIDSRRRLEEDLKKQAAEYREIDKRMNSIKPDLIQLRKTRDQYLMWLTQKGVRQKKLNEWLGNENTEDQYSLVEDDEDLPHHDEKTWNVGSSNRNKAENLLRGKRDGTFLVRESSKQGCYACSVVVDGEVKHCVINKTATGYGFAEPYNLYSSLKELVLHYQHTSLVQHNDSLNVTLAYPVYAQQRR

C[C@H](Nc1ncnc2[nH]cnc12)c1cc2cccc(Cl)c2c(=O)n1-c1ccccc1 [Compound 292]
leukocyte migration into the bronchoalveolar space ([1]; FIG. 15): inhibited | eosinophil influx into the airway space (BAL fluid) ([1]; all doses tested, 0.03 to 10 mg/kg PO): significantly blocked | lymphocyte and monocyte accumulation in BAL fluid ([1]; ovalbumin induced): reduced | respiratory parameters (respiratory rate, tidal volume, minute volume) [2]: no Compound 292-related effects | AUC(0-t) [3]: 4020 ng·h/mL | neutrophil influx into IL-8 stimulated air pouches ([4]; 1 mg/kg PO): only slightly | neutrophil influx into IL-8 stimulated air pouches ([4]; 10 and 25 mg/kg PO): inhibits; also recorded: significantly blocked | EC50 [5]: 0.5 nM | deaths and serious adverse events (SAEs) ([6]; all doses evaluated): no deaths and no serious adverse events | safety laboratory or electrocardiogram (ECG) abnormalities ([6]; any portion of the study): No clinically significant safety laboratory or electrocardiogram (ECG) abnormalities | QTcF at any assessment ([6]; serial ECGs): ≤ 500 ms | largest change from baseline in QTcF ([6]; serial ECGs): 37 ms | tolerability ([6]; single doses up to 30 mg and up to 10 mg total daily dose for 14 days): well tolerated | excretion of unchanged compound in urine [7]: < 2 % of the administered dose | time to peak plasma concentrations [7]: 0.5 to 1 h | accumulation ([7]; 14 days of Q12 h oral administration): less than 2 fold | increase of AUC0-inf in the presence of ketoconazole [7, 18]: ~295% | increase of AUC0-last in the presence of ketoconazole [7, 18]: ~285% | increase of Cmax in the presence of ketoconazole [7, 18]: approximately 66% | decrease of Cmax in the presence of a high fat meal ([7]; food effect portion, 25 mg): approximately 10% | half-life ([7]; oral, following a single dose, read-out: half-life): 3.5 to 9.5 h | AUC(0-t) ([7]; po, 1 mg, single oral dose 1 mg, mean (%CV), read-out: AUC(0-24)): 149 ng·h/mL | AUC(0-t) ([7]; po, 1 mg, single oral dose 1 mg, mean (%CV), read-out: AUC(0-t)): 148 ng·h/mL | half-life ([7]; po, 1 mg, single oral dose 1 mg, mean (%CV), read-out: T1/2 (converted)): 3.52 h | AUC(0-t) ([7]; po, 2 mg, single oral dose 2 mg, mean (%CV), read-out: AUC(0-24)): 289 ng·h/mL | AUC(0-t) ([7]; po, 2 mg, single oral dose 2 mg, mean (%CV), read-out: AUC(0-t)): 291 ng·h/mL | half-life ([7]; po, 2 mg, single oral dose 2 mg, mean (%CV), read-out: T1/2 (converted)): 5.43 h | AUC(0-t) ([7]; po, 5 mg, single oral dose 5 mg, mean (%CV), read-out: AUC(0-24)): 733 ng·h/mL | AUC(0-t) ([7]; po, 5 mg, single oral dose 5 mg, mean (%CV), read-out: AUC(0-t)): 735 ng·h/mL | half-life ([7]; po, 5 mg, single oral dose 5 mg, mean (%CV), read-out: T1/2 (converted)): 5.43 h | AUC(0-t) ([7]; po, 10 mg, single oral dose 10 mg, mean (%CV), read-out: AUC(0-24)): 891 ng·h/mL | AUC(0-t) ([7]; po, 10 mg, single oral dose 10 mg, mean (%CV), read-out: AUC(0-t)): 905 ng·h/mL | half-life ([7]; po, 10 mg, single oral dose 10 mg, mean (%CV), read-out: T1/2 (converted)): 9.47 h | AUC(0-t) ([7]; po, 20 mg, single oral dose 20 mg, mean (%CV), read-out: AUC(0-24)): 2190 ng·h/mL | AUC(0-t) ([7]; po, 20 mg, single oral dose 20 mg, mean (%CV), read-out: AUC(0-t)): 2240 ng·h/mL | half-life ([7]; po, 20 mg, single oral dose 20 mg, mean (%CV), read-out: T1/2 (converted)): 7.79 h | AUC(0-t) ([7]; po, 30 mg, single oral dose 30 mg, mean (%CV), read-out: AUC(0-24)): 3260 ng·h/mL | AUC(0-t) ([7]; po, 30 mg, single oral dose 30 mg, mean (%CV), read-out: AUC(0-t)): 3380 ng·h/mL | half-life ([7]; po, 30 mg, single oral dose 30 mg, mean (%CV), read-out: T1/2 (converted)): 8.12 h | AUC(0-inf) [7, 19]: 151 ng·h/mL | Cmax [7, 19]: 43.4 ng/mL | Vd/F [7, 19]: 38.8 L | AUC(0-inf) [7, 20]: 296 ng·h/mL | Cmax [7, 20]: 78.8 ng/mL | Vd/F [7, 20]: 57.9 L | AUC(0-inf) [7, 21]: 743 ng·h/mL | Cmax [7, 21]: 246 ng/mL | Vd/F [7, 21]: 53 L | AUC(0-inf) [7, 22]: 914 ng·h/mL | Cmax [7, 22]: 454 ng/mL | Vd/F [7, 22]: 147 L | AUC(0-inf) [7, 23]: 2250 ng·h/mL | Cmax [7, 23]: 997 ng/mL | Vd/F [7, 23]: 99.1 L | AUC(0-inf) [7, 24]: 3400 ng·h/mL | Cmax [7, 24]: 1140 ng/mL | Vd/F [7, 24]: 113 L | EC50 [8]: 9.5 nM | PAM2CSK4 induced IL-1 production [9]: Inhibited | PAM2CSK4 induced IL-6 production [9]: Inhibited | PAM2CSK4 induced IL-8 production [9]: Inhibited | PAM2CSK4 induced TNF-α production [9]: Inhibited | CPG-A induced IL-6 production ([10]; PBMCs): Inhibited | CPG-A induced IL-8 production ([10]; PBMCs): Inhibited | CPG-A induced TNF-α production ([10]; PBMCs): Inhibited | CPG-A induced IFN-α production ([10]; human PBMCs): potently inhibited; also recorded: blocked | AUC(0-t) [11]: 66200 ng·h/mL | AUC(0-t) [12]: 62200 ng·h/mL | LPS induced IL-1 production [13]: enhanced | LPS induced IL-6 production [13]: enhanced | LPS induced IL-8 production [13]: did not detectably affect | LPS induced TNF-α production [13]: enhanced | lower dose inhibiting PI3K-δ compared to PI3K-γ, PI3K-β or PI3K-α [14]: at least 10 fold | EC50 [15]: 0.5 nM | Foral ([16]; Sprague-Dawley rats, PO 10 mg/kg suspension): 57% | half-life ([16]; Sprague-Dawley, rat, in vivo, intravenous, 2 mg/kg): < 2 h | AUC(0-t) [17]: 14200 ng·h/mL
